In BindingDB's records for doi:10.1016/j.bmcl.2003.11.032 (Abbott Laboratories, 2004):
pKi: −log10 of the molar value.

Assays:
[1] = biological target: Histamine H3 receptor (Homo sapiens, UniProt Q9Y5N1); assay: Binding potency was determined by displacement of [3H]N-alpha-methyl histamine from cloned human histamine H3 receptor expressed in C6 cells
[2] = biological target: Histamine H3 receptor (Rattus norvegicus, UniProt Q9QYN8); assay: Binding potency was determined by displacement of [3H]N-alpha-methyl histamine from histamine H3 receptor of rat cortical membranes
Histamine H3 receptor (Rattus norvegicus, UniProt Q9QYN8), sequence (Q9QYN8 whole entry): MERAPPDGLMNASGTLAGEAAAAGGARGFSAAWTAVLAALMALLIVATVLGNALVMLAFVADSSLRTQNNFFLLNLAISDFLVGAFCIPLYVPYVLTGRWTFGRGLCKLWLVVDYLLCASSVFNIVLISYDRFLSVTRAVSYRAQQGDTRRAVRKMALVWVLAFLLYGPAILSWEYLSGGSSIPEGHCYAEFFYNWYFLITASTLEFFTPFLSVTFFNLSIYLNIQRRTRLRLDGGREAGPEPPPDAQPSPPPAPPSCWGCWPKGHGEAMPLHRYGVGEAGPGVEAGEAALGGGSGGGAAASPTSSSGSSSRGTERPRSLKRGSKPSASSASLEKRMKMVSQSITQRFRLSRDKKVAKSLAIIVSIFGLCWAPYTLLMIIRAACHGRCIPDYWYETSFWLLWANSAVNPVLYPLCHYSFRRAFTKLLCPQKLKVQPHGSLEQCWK

Histamine H3 receptor (Homo sapiens, UniProt Q9Y5N1), sequence (Q9Y5N1 whole entry): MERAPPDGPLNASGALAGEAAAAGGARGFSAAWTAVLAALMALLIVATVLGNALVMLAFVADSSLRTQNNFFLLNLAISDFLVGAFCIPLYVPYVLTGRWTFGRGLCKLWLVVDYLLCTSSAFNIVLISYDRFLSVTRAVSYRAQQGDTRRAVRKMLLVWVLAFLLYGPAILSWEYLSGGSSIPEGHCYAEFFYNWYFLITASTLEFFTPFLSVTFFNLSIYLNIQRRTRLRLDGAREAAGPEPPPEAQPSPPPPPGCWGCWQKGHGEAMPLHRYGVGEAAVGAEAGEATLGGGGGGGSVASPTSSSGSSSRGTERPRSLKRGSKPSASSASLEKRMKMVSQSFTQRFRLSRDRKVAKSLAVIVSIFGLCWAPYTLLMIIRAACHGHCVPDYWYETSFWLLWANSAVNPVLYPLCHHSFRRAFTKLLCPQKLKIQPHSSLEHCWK

| Structure (SMILES) | pKi [1] | pKi [2] |
| --- | --- | --- |
| O=C(c1ccc(-c2ccc3oc(CCN4CCCCC4)cc3c2)nc1)N1CCOCC1 [Morpholin-4-yl-{6-[2-(2-piperidin-1-yl-ethyl)-benzofuran-5-yl]-pyridin-3-yl}-methanone] | 7.89 | – |
| CC1CCCCN1CCc1cc2cc(-c3ccc(C(=O)N4CCOCC4)cc3)ccc2o1 (configuration not stated) [(4-{2-[2-(2-Methyl-piperidin-1-yl)-ethyl]-benzofuran-5-yl}-phenyl)-morpholin-4-yl-methanone] | – | 7.89 |
